The source of these data is patent publication US10829473B2, “Modulators of the cystic fibrosis transmembrane conductance regulator protein and methods of use” (AbbVie Overseas S.Á.R.L., priority 2017, dated 2020).

Broadly, the pEC50 is the EC50 on a negative log10 scale, so that one unit is a factor of ten.

In the experiment the target is T1, F508delCFTR (Homo sapiens, UniProt P13569, DEL508-508).
T1 construct: expressed in transfected cells; host or cells: CFBE41o- human lung derived epithelial cells (CFBE41o-F508delCFTR-HRP), doxycycline-inducible
T1 sequence (P13569 with tags, fused parts or gaps DEL508-508): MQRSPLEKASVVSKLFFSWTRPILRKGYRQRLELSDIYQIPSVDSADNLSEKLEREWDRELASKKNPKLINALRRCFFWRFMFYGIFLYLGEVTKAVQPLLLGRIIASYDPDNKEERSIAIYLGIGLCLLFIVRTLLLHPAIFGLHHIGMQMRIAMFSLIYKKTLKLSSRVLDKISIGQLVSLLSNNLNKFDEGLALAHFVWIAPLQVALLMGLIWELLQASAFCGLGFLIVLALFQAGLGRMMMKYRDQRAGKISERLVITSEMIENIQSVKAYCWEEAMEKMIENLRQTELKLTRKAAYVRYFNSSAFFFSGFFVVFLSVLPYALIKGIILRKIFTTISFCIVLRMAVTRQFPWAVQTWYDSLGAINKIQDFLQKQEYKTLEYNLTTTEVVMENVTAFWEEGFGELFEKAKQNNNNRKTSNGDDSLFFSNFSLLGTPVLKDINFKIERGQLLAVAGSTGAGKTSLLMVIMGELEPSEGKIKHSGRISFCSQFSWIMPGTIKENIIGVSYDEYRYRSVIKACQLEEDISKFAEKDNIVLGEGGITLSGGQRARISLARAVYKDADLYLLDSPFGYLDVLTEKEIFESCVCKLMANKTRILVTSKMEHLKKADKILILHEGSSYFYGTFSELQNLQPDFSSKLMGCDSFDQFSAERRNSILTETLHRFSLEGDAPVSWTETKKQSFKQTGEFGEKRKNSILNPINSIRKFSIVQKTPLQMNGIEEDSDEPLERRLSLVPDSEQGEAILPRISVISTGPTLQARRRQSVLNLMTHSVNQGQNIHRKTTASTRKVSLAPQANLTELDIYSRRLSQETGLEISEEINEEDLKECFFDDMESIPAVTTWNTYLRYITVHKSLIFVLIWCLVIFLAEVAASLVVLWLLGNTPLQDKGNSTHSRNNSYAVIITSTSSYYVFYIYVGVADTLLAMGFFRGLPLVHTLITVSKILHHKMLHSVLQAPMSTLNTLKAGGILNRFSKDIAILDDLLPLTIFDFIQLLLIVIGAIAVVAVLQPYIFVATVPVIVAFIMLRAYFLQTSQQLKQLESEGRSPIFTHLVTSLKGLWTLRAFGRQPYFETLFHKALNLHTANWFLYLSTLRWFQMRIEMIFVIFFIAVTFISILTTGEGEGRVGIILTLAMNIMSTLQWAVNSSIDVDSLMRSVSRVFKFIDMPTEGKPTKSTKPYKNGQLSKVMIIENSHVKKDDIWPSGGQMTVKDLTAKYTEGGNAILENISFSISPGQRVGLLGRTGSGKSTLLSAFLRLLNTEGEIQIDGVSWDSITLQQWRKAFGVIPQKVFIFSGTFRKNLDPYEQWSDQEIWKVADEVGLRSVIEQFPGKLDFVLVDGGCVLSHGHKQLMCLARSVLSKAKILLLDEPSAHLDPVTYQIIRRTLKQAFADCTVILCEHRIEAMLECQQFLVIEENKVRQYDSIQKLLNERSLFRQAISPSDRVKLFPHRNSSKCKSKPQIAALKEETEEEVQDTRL
Description: Cell Surface Expression-Horse Radish Peroxidase (CSE-HRP) Assay.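 On EC50 (with co-corrector): co-corrector chromenyl benzoic acid corrector at 2 or 3 µM.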 The class given is cell-based. The settings on record: for Maximum % activity (with co-corrector) / Emax: maximum at any tested concentration; for Emax: read-out: Maximum % activity (without co-corrector). As for the experimental part: A cellular assay for measuring the F508delCFTR cell surface expression after correction with test compounds either without or with a co-corrector (2 μM of 3-[(2R,4R)-4-({[1-(2,2-difluoro-1,3-benzodioxol-5-yl)cyclopropyl]carbonyl}amino)-7-methoxy-3,4-dihydro-2H-chromen-2-yl]benzoic acid), was developed in human lung derived epithelial cell line (CFBE4lo−) (Veit G et al, (2012) Mol Biol Cell. 23(21): 4188-4202). The development was achieved by expressing the F508delCFTR mutation along with a horseradish peroxidase (HRP) in the fourth exofacial loop, and then measuring the HRP activity using luminescence readout from these cells, CFBE410-F508delCFTR-HRP, that were incubated overnight with the test corrector compounds, either without or with the co-corrector. For this primary assay, the CFBE410-F508delCFTR-HRP cells were plated in 384-well plates (Greiner Bio-one; Cat 781080) at 4,000 cells/well along with 0.5 μg/mL doxycycline to induce the F508delCFTR-HRP expression and further incubated at 37° C., 5% CO2 for 68-72 hours. The test compounds were then added either without or with a co-corrector at the required concentrations and further incubated for 18-24 hours at 33° C. The highest concentration tested was 20 μM or 30 μM (GI-1 to GIII-36) with an 8-point concentration response curve using a 3-fold dilution in both the test compound without or with the co-corrector. Three replicate plates were run to determine one EC50. All plates contained negative controls (dimethyl sulfoxide, DMSO) and positive control (2 μM or 3 μM (GI-1 to GIII-36) of 3-[(2R,4R)-4-({[1-(2,2-difluoro-1,3-benzodioxol-5-yl)cyclopropyl]carbonyl}amino)-7-methoxy-3,4-dihydro-2H-chromen-2-yl]benzoic acid) as well as on-plate concentration response of the positive control. Post incubation, the plates were washed 5× times with Dulbecco's phosphate buffered saline (DPBS), followed by the addition of the HRP substrate, luminol (50 4), and measuring the HRP activity using luminescence readout on EnVision® Multilabel Plate Reader (Perkin Elmer; product number 2104-0010). The raw counts from the experiment were analyzed using Accelrys® Assay Explorer v3.3.
Z′ greater than 0.5 was used as passing quality control criteria for the plates.
The Z′ is defined as: 1−[3*SDPositve Control+3*SDNegative Control/Absolute(MeanPositive Control−MeanNegative Control)] wherein “SD” is standard deviation.
The % activity measured at each of the 8 test concentrations of the test compound added either without or with a co-corrector (2 μM or 3 μM (GI-1 to GIII-36) of 3-[(2R,4R)-4-({[1-(2,2-difluoro-1,3-benzodioxol-5-yl)cyclopropyl]carbonyl}amino)-7-methoxy-3,4-dihydro-2H-chromen-2-yl]benzoic acid) was normalized to the on-plate positive control using the following formulae: % activity (Test compound without co-corrector)=[(test compound without co-corrector response DMSO response)/(positive control response DMSO response)]*100 % activity (Test compound with co-corrector)=[(test compound with co-corrector response DMSO response)/(positive control response DMSO response)]*100
The maximum % activity achieved for the test compound either without or with a co-corrector at any tested concentration is presented in Table 6 along with the respective EC50's calculated using the following general sigmoidal curve with variable Hill slope equation (described as Model 42 in the Accelrys® Assay Explorer v3.3 software): y=(a−d)/(1+(x/c)b)+d
General sigmoidal curve with concentration, response, top, bottom, EC50 and Hill slope. This model describes a sigmoidal curve with an adjustable baseline, a. The equation can be used to fit curves where response is either increasing or decreasing with respect to the independent variable, “x”.
“x” is a concentration of drug under test.
“a” is the maximum response, and “d” is the minimum response
“c” is the inflection point (EGO for the curve. That is, “y” is halfway between the lower and upper asymptotes when x=c.
“b” is the slope-factor or Hill coefficient. […]

Where [1] appears, read: test compound alone, without co-corrector, read-out: EC50 (without co-corrector).
[2] abbreviates: with co-corrector, read-out: EC50 (with co-corrector).
Setting [3] is: test compound with co-corrector.
Where [4] appears, read: test compound with co-corrector, read-out: EC50 (with co-corrector).
The mark [5] stands for this setting: test compound without co-corrector.
Where [6] appears, read: test compound without co-corrector, read-out: EC50 (without co-corrector).

pEC50: −log10 of the molar value. Where two headings read alike, the source gives them in different places. Where only a bound is given, the exact number is not on record here.

In the case of `COc1cc(C2(C(=O)NS(=O)(=O)c3cccc4ncccc34)CC2)c(OC(C)C)cn1` [Example GI-16, 1-{2-methoxy-5-[(propan-2-yl)oxy]pyridin-4-yl}-N-(quinoline-5-sulfonyl)cyclopropane-1-carboxamide], the pEC50 reads like this: under setting [1], 5.00 to 5.52; under setting [2], > 5.52. Also, where the note is “with co-corrector”, the “Maximum % activity (with co-corrector)” value is “+++ (≥350)”. Further, the Emax (without co-corrector) was > 150%.

With `COc1cc(OC(C)C)c(C2(C(=O)NS(=O)(=O)c3cccc4ncccc34)CC2)cn1` [Example GI-17, 1-{6-methoxy-4-[(propan-2-yl)oxy]pyridin-3-yl}-N-(quinoline-5-sulfonyl)cyclopropane-1-carboxamide], the pEC50 is 5.00 to 5.52 under setting [1] and > 5.52 under setting [2]. Besides, where the note is “with co-corrector”, the “Maximum % activity (with co-corrector)” value is given as “+++ (≥350)”. For the same compound, under “without co-corrector”, the Emax was > 150%.

With `COc1cc(OC(C)C)c(C2(C(=O)NS(=O)(=O)c3cccc4nc(C)ccc34)CC2)cn1` [Example GI-18, 1-{6-methoxy-4-[(propan-2-yl)oxy]pyridin-3-yl}-N-(2-methylquinoline-5-sulfonyl)cyclopropane-1-carboxamide], the pEC50 by setting is: under setting [1], 5.00 to 5.52; under setting [2], > 5.52. Where the note is “with co-corrector”, the “Maximum % activity (with co-corrector)” value was “+++ (≥350)”. The Emax (without co-corrector) is > 150%.

For `COc1cc(C2(C(=O)NS(=O)(=O)c3cccc4ncccc34)CC2)c(OCC(C)C)cn1` [Example GI-19, 1-[2-methoxy-5-(2-methylpropoxy)pyridin-4-yl]-N-(quinoline-5-sulfonyl)cyclopropane-1-carboxamide], the pEC50 under setting [1] is 5.00 to 5.52 and the pEC50 under setting [2] was > 5.52. Further, the “Maximum % activity (with co-corrector)” value (with co-corrector) is given as “+++ (≥350)”. Also, the Emax (without co-corrector) was > 150%.

With `COc1cc(C2(C(=O)NS(=O)(=O)c3cccc4nc(C)ccc34)CC2)c(OCC(C)C)cn1` [Example GI-20, 1-[2-methoxy-5-(2-methylpropoxy)pyridin-4-yl]-N-(2-methylquinoline-5-sulfonyl)cyclopropane-1-carboxamide], the pEC50 is > 5.52 under setting [1] and > 5.52 under setting [2]. In addition, for the setting “with co-corrector”, the “Maximum % activity (with co-corrector)” value was “+++ (≥350)”. Further, the Emax (without co-corrector) is > 150%.

`COc1cc(C2(C(=O)NS(=O)(=O)c3cccc4[nH]ccc34)CC2)c(OCC(C)C)cn1` [Example GI-21, N-(1H-indole-4-sulfonyl)-1-[2-methoxy-5-(2-methylpropoxy)pyridin-4-yl]cyclopropane-1-carboxamide]: the pEC50 reads like this: under setting [1], > 5.52; under setting [2], > 5.52. Where the note is “with co-corrector”, the “Maximum % activity (with co-corrector)” value was “+++ (≥350)”. Also, for the setting “without co-corrector”, the Emax was > 150%.

For the compound `CC(C)Oc1ncc(C2CCC2)cc1C1(C(=O)NS(=O)(=O)c2cccc3ncccc23)CC1` [Example GI-22, 1-{5-cyclobutyl-2-[(propan-2-yl)oxy]pyridin-3-yl}-N-(quinoline-5-sulfonyl)cyclopropane-1-carboxamide], the pEC50 runs as follows: under setting [1], > 5.52; under setting [2], > 5.52. For the same compound, the “Maximum % activity (with co-corrector)” value (with co-corrector) is listed as “+++ (≥350)”. Besides, the Emax (without co-corrector) was > 150%.

Take `Cc1ccc2c(S(=O)(=O)NC(=O)C3(c4cc(C5CCC5)cnc4OC(C)C)CC3)cccc2n1` [Example GI-23, 1-{5-cyclobutyl-2-[(propan-2-yl)oxy]pyridin-3-yl}-N-(2-methylquinoline-5-sulfonyl)cyclopropane-1-carboxamide]: the pEC50 is, setting by setting: under setting [1], > 5.52; under setting [2], > 5.52. The “Maximum % activity (with co-corrector)” value (with co-corrector) is “+++ (≥350)”. Also, for the setting “without co-corrector”, the Emax was > 150%.

Consider `CC(C)Oc1ncc(C2CCC2)cc1C1(C(=O)NS(=O)(=O)c2cccc3[nH]ccc23)CC1` [Example GI-24, 1-{5-cyclobutyl-2-[(propan-2-yl)oxy]pyridin-3-yl}-N-(1H-indole-4-sulfonyl)cyclopropane-1-carboxamide], for which the pEC50 is > 5.52 under setting [1] and > 5.52 under setting [2]. The “Maximum % activity (with co-corrector)” value (with co-corrector) is listed as “+++ (≥350)”. Under “without co-corrector”, the Emax is > 150%.

As to `CC(C)Oc1cnc(C2CCC2)cc1C1(C(=O)NS(=O)(=O)c2cccc3ncccc23)CC1` [Example GI-25, 1-{2-cyclobutyl-5-[(propan-2-yl)oxy]pyridin-4-yl}-N-(quinoline-5-sulfonyl)cyclopropane-1-carboxamide], the pEC50 is 5.00 to 5.52 under setting [1] and > 5.52 under setting [2]. Besides, the “Maximum % activity (with co-corrector)” value (with co-corrector) is recorded as “+++ (≥350)”. The Emax (without co-corrector) is > 150%.

In the case of `Cc1ccc2c(S(=O)(=O)NC(=O)C3(c4cc(C5CCC5)ncc4OC(C)C)CC3)cccc2n1` [Example GI-26, 1-{2-cyclobutyl-5-[(propan-2-yl)oxy]pyridin-4-yl}-N-(2-methylquinoline-5-sulfonyl)cyclopropane-1-carboxamide], the pEC50 under setting [1] is 5.00 to 5.52 and the pEC50 under setting [2] is > 5.52. In addition, the “Maximum % activity (with co-corrector)” value (with co-corrector) is recorded as “+++ (≥350)”. Further, the Emax (without co-corrector) is > 150%.

For the compound `CC(C)Oc1cnc(C2CCC2)cc1C1(C(=O)NS(=O)(=O)c2cccc3[nH]ccc23)CC1` [Example GI-27, 1-{2-cyclobutyl-5-[(propan-2-yl)oxy]pyridin-4-yl}-N-(1H-indole-4-sulfonyl)cyclopropane-1-carboxamide], the pEC50 was 5.00 to 5.52 under setting [1] and > 5.52 under setting [2]. For the same compound, the “Maximum % activity (with co-corrector)” value (with co-corrector) is “+++ (≥350)”. In addition, the Emax (without co-corrector) is > 150%.

Turning to `O=C(NS(=O)(=O)c1cccc2ncccc12)C1(c2cc(C3CCC3)cnc2N2CCCC2)CC1` [Example GI-28, 1-[5-cyclobutyl-2-(pyrrolidin-1-yl)pyridin-3-yl]-N-(quinoline-5-sulfonyl)cyclopropane-1-carboxamide], the pEC50 by setting is: under setting [1], 5.00 to 5.52; under setting [2], > 5.52. For the same compound, where the note is “with co-corrector”, the “Maximum % activity (with co-corrector)” value was “+++ (≥350)”. In addition, the Emax (without co-corrector) was > 150%.

With `Cc1ccc2c(S(=O)(=O)NC(=O)C3(c4cc(C5CCC5)cnc4N4CCCC4)CC3)cccc2n1` [Example GI-29, 1-[5-cyclobutyl-2-(pyrrolidin-1-yl)pyridin-3-yl]-N-(2-methylquinoline-5-sulfonyl)cyclopropane-1-carboxamide], the “Maximum % activity (with co-corrector)” value under setting [3] was “+++ (≥350)”. Also, the pEC50 under setting [4] is > 5.52 and the pEC50 under setting [6] is > 5.52. For the same compound, under setting [5], the Emax was > 150%.

Turning to `O=C(NS(=O)(=O)c1cccc2[nH]ccc12)C1(c2cc(C3CCC3)cnc2N2CCCC2)CC1` [Example GI-30, 1-[5-cyclobutyl-2-(pyrrolidin-1-yl)pyridin-3-yl]-N-(1H-indole-4-sulfonyl)cyclopropane-1-carboxamide], the “Maximum % activity (with co-corrector)” value under setting [3] is given as “+++ (≥350)”. In addition, the pEC50 was > 5.52 under setting [4] and > 5.52 under setting [6]. Under setting [5], the Emax is > 150%.

With `O=C(NS(=O)(=O)c1cccc2c1CCCN2)C1(c2cc(C3CCC3)cnc2N2CCCC2)CC1` [Example GI-31, 1-[5-cyclobutyl-2-(pyrrolidin-1-yl)pyridin-3-yl]-N-(1,2,3,4-tetrahydroquinoline-5-sulfonyl)cyclopropane-1-carboxamide], the “Maximum % activity (with co-corrector)” value under setting [3] is listed as “+++ (≥350)”. The pEC50 is > 5.52 under setting [4] and > 5.52 under setting [6]. Besides, the Emax under setting [5] was > 150%.
